Measured values: patent US20230075521A1, “RESVERATROL PHARMACEUTICAL COMPOSITIONS AND METHODS OF USE THEREOF” (priority 2021, published 2023)
Several values for one entry are separate records, joined by “and”; a condition that tells them apart may be missing. Equal entries are not always repeated.

Columns and labels:
[1] = system: ERC cytokines and chemokines; test: Entorhinal cortex (ERC) cytokine and chemokine levels (48-Plex ProcartaPlex, Luminex); assay type: in vivo, 3×Tg-AD mouse
Experimental: At study endpoints (age 15 months for sub-chronic study, age 13 months for long-term study), mice were anaesthetized with isoflurane and blood was collected by transcardial puncture. Blood was stored on ice and then centrifuged at 10,000×g at 4° C. for 10 min to collect serum and stored at −80° C. until use. The brain was then extracted and quickly dissected on ice to collect prefrontal cortex (PFC), hippocampus, entorhinal cortex (ERC), and cerebellum, which were immediately frozen in liquid nitrogen. The samples were stored at −80° C. until processed for RNA or protein extraction. For each mouse, brain regions from one hemisphere were used for RNA preparation and qPCR and sections from the other hemisphere were used for protein work including ELISAs.
Protein lysates were extracted by sonicating tissue in M-PER Mammalian Protein Extraction Reagent (Thermo Fisher Scientific) supplemented with protease inhibitor (Thermo Fisher Scientific) and phosphatase inhibitor (Thermo Fisher Scientific). Total protein was quantified using Pierce BCA Protein Assay Kit (Thermo Fisher Scientific) and read at 562 nm using EnVision (Perkin Elmer).
Human Aβ1-42, Aβ1-40, phosphorylated tau Ser 396, phosphorylated tau Thr181, and total tau were measured in brain tissue by enzyme linked immuno-sorbent assay (ELISA; Invitrogen by Thermo) and normalized to total protein. All the kits were used as per the manufacturer's instructions and measured using the EnVision® multimode plate reader (Perkin Elmer). Serum and brain tissue protein extracts were analyzed for cytokine and chemokine levels using the Immune Monitoring 48-Plex Mouse ProcartaPlex™ Panel (Invitrogen by Thermo) according to manufacturer's standard protocol and read using Luminex xMAP (multi-analyte profiling) technology.

[2] = Mouse PK study, resveratrol in brain; assay type: in vivo, CD-1 mice; settings: male mice, single dose 50 mg/kg oral, 30 min
Experimental: For mouse PK studies, male CD-1 mice (Charles River Canada) were used. Animals were food fasted for 4 h prior to dosing and water fasted 1 h prior to dosing. […] At each time point (15 min, 30 min, 1 h, 4 h) 3 mice of each group were terminally bled via cardiac puncture under red light. Blood was collected into sodium-EDTA tubes under red light and spun at […] for 10 min at 6800×g. Plasma was collected and split into amber tubes. Both left and right brain were collected and snap-frozen in liquid nitrogen and stored at […] Drug concentrations were analyzed by liquid chromatography-mass spectrometry (LC-MS/MS) by KDM Laboratories Inc. For rat PK studies, male Sprague-Dawley rats (Charles River Canada) were used. […] Blood was collected under red light from the trunk at 30 min into K3EDTA tubes and centrifuged immediately at 4° C. for 10 min at 6800×g, and plasma collected into amber tubes. Brains were collected and snap-frozen in liquid nitrogen and stored at […] Drug concentration was analyzed by LC-MS/MS.

[3] = female 3×Tg-AD mice, 50 mg/kg oral, 9 months
[4] = female 3×Tg-AD mice, 50 mg/kg oral, 9 months, 50 mg/kg
[5] = male 3×Tg-AD mice, 50 mg/kg oral, 9 months
[6] = male 3×Tg-AD mice, 50 mg/kg oral, 9 months, 50 mg/kg

Compound: Oc1ccc(/C=C/c2cc(O)cc(O)c2)cc1 [RSV, (trans-)resveratrol]
- IFNg ERC level, change vs vehicle [1, 3]: -0.64 pg/mL
- IL-1b ERC level, change vs vehicle [1, 3]: -1.12 pg/mL
- IL-2 ERC level, change vs vehicle [1, 3]: 18.07 pg/mL
- IL-2RA ERC level, change vs vehicle [1, 3]: -0.95 pg/mL
- IL-3 ERC level, change vs vehicle [1, 3]: -0.34 pg/mL
- IL-5 ERC level, change vs vehicle [1, 3]: -6.60 pg/mL
- IL-9 ERC level, change vs vehicle [1, 3]: 7.25 pg/mL
- IL- 10 ERC level, change vs vehicle [1, 3]: 0.54 pg/mL
- IL-12p70 ERC level, change vs vehicle [1, 3]: 1.75 pg/mL
- IL-13 ERC level, change vs vehicle [1, 3]: 1.74 pg/mL
- IL-17A ERC level, change vs vehicle [1, 3]: 0.69 pg/mL
- IL-22 ERC level, change vs vehicle [1, 3]: -0.13 pg/mL
- IL-25/IL-17 ERC level, change vs vehicle [1, 3]: -23.30 pg/mL
- IL-27 ERC level, change vs vehicle [1, 3]: -0.87 pg/mL
- IL-33 ERC level, change vs vehicle [1, 3]: -56.09 pg/mL
- LIX ERC level, change vs vehicle [1, 3]: -12.67 pg/mL
- M-CSF ERC level, change vs vehicle [1, 3]: -0.32 pg/mL
- MCP-3 ERC level, change vs vehicle [1, 3]: 1.94 pg/mL
- MIP-2 ERC level, change vs vehicle [1, 3]: -2.59 pg/mL
- RANTES ERC level, change vs vehicle [1, 3]: -1.97 pg/mL
- TNFa ERC level, change vs vehicle [1, 3]: -10.12 pg/mL
- VEGF-A ERC level, change vs vehicle [1, 3]: 4.80 pg/mL
- sRANKL ERC level, change vs vehicle [1, 3]: 0.70 pg/mL
- IL-6 ERC level, change vs vehicle [1, 4]: 5.44 ± 2.1 pg/mL and 5.44 pg/mL
- IL-7 ERC level, change vs vehicle [1, 4]: 40.12 ± 15.04 pg/mL and 40.12 pg/mL
- IL-18 ERC level, change vs vehicle [1, 4]: -84.91 ± 35.55 pg/mL and -84.91 pg/mL
- IL-19 ERC level, change vs vehicle [1, 4]: 105.7 ± 22.58 pg/mL and 105.70 pg/mL
- IL-23 ERC level, change vs vehicle [1, 4]: 42.53 ± 10.42 pg/mL and 42.53 pg/mL
- IL-28 ERC level, change vs vehicle [1, 4]: 146.9 ± 34.42 pg/mL and 146.90 pg/mL
- IP-10 ERC level, change vs vehicle [1, 4]: 21.13 ± 4.32 pg/mL and 21.13 pg/mL
- IFNg ERC level, change vs vehicle [1, 5]: 1.51 pg/mL
- IL-1b ERC level, change vs vehicle [1, 5]: 0.97 pg/mL
- IL-2 ERC level, change vs vehicle [1, 5]: 31.55 pg/mL
- IL-3 ERC level, change vs vehicle [1, 5]: 0.18 pg/mL
- IL-5 ERC level, change vs vehicle [1, 5]: 3.37 pg/mL
- IL-6 ERC level, change vs vehicle [1, 5]: 2.70 pg/mL
- IL-7 ERC level, change vs vehicle [1, 5]: 41.08 pg/mL
- IL-9 ERC level, change vs vehicle [1, 5]: 19.29 pg/mL
- IL-12p70 ERC level, change vs vehicle [1, 5]: 0.61 pg/mL
- IL-13 ERC level, change vs vehicle [1, 5]: 5.16 pg/mL
- IL-17A ERC level, change vs vehicle [1, 5]: 2.77 pg/mL
- IL-18 ERC level, change vs vehicle [1, 5]: 42.33 pg/mL
- IL-19 ERC level, change vs vehicle [1, 5]: 104.30 pg/mL
- IL-22 ERC level, change vs vehicle [1, 5]: 2.18 pg/mL
- IL-23 ERC level, change vs vehicle [1, 5]: 41.51 pg/mL
- IL-25/IL-17 ERC level, change vs vehicle [1, 5]: 15.36 pg/mL
- IL-27 ERC level, change vs vehicle [1, 5]: 2.75 pg/mL
- IL-28 ERC level, change vs vehicle [1, 5]: 130.90 pg/mL
- IL-33 ERC level, change vs vehicle [1, 5]: 64.64 pg/mL
- IP-10 ERC level, change vs vehicle [1, 5]: 13.80 pg/mL
- LIX ERC level, change vs vehicle [1, 5]: 16.39 pg/mL
- M-CSF ERC level, change vs vehicle [1, 5]: 0.50 pg/mL
- MCP-3 ERC level, change vs vehicle [1, 5]: 0.76 pg/mL
- RANTES ERC level, change vs vehicle [1, 5]: 1.40 pg/mL
- TNFa ERC level, change vs vehicle [1, 5]: 23.73 pg/mL
- VEGF-A ERC level, change vs vehicle [1, 5]: 3.55 pg/mL
- sRANKL ERC level, change vs vehicle [1, 5]: 2.59 pg/mL
- IL-2RA ERC level, change vs vehicle [1, 6]: 0.77 ± 0.043 pg/mL and 0.77 pg/mL
- MIP-2 ERC level, change vs vehicle [1, 6]: 7.51 ± 2.55 pg/mL and 7.51 pg/mL
- IL-9 in ERC, increase vs vehicle ([1]; males and females combined): 65.4 ± 25.69 pg/mL
- Resveratrol accumulation in the brain [2]: not detected in the brain
